For this test, the system named is HT29 cells. The experiment in a line: Inhibition of cell necrosis (CCK8 method), induced programmed necrosis of HT29 cells. The format is cell-based. Particulars: Homo sapiens, HT-29; rescue from necrosis induced by TNF-α 20 ng/mL, AT-406 1 μM, Z-VAD-FMK 20 μM; 16-20 hours; CCK-8, OD 450 nm. The method, boiled down: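 Rescue from programmed necrosis was scored by CCK-8 absorbance at 450 nm after 16-20 h of TNF-α (20 ng/mL), AT-406 (1 μM) and Z-VAD-FMK (20 μM) at 37 °C, 5% CO2. HT29 cells had received compound 30 min earlier across nine 4-fold dilutions (top 25000 nM final). IC50 came from % inhibition relative to uninduced and induced-only wells.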
(Formazan colour is commonly taken as a measure of viable cells.)

This note sets out measurements from patent US12435060B2, “Acylamino bridged heterocyclic compound, and composition and application thereof” (BEIJING SCITECH-MQ PHARMACEUTICALS LIMITED, priority 2019, dated 2025).

Where only a bound is given, the exact number is not on record here.

Usually IC50 stands for the concentration that gives 50% inhibition. Low readings indicate greater potency in that assay, high ones weaker potency in that assay. As for `Cc1ccc(OCCCC(C)(C)O)cc1-c1ccnc(NC(=O)c2nnc(Cc3cc(F)c(F)cc3F)[nH]2)c1` [Example 218, 5-(2,4,5-trifluorobenzyl)-N-(4-(5-((4-hydroxy-4-methylpentyl)oxy)-2-methylphenyl)pyridin-2-yl)-4H-1,2,4-triazole-3-carboxamide], the IC50 is no more than 100 nM. In the case of `Cc1ccc(OCCCC(C)(C)O)cc1-c1ccnc(NC(=O)c2nnc(Cc3ccccn3)[nH]2)c1` [Example 219, N-(4-(5-((4-hydroxy-4-methylpentyl)oxy)-2-methylphenyl)pyridin-2-yl)-5-(pyridin-2-ylmethyl)-4H-1,2,4-triazole-3-carboxamide] it was no more than 100 nM; in that of `Cc1ccc(OCCCC(C)(C)O)cc1-c1ccnc(NC(=O)c2nnc(Cc3cccnc3)[nH]2)c1` [Example 220, N-(4-(5-((4-hydroxy-4-methylpentyl)oxy)-2-methylphenyl)pyridin-2-yl)-5-(pyridin-3-ylmethyl)-4H-1,2,4-triazole-3-carboxamide], no more than 100 nM. In the case of `Cc1ccc(OCCCC(C)(C)O)cc1-c1ccnc(NC(=O)c2nnc(Cc3ccncc3)[nH]2)c1` [Example 221, N-(4-(5-((4-hydroxy-4-methylpentyl)oxy)-2-methylphenyl)pyridin-2-yl)-5-(pyridin-4-ylmethyl)-4H-1,2,4-triazole-3-carboxamide] it was 100 to 1000 nM. In the case of `Cc1ccc(OCCCC(C)(C)O)cc1-c1ccnc(NC(=O)c2nnc(CC3CCCCCC3)[nH]2)c1` [Example 222, 5-(cycloheptylmethyl)-N-(4-(5-((4-hydroxy-4-methylpentyl)oxy)-2-methylphenyl)pyridin-2-yl)-4H-1,2,4-triazole-3-carboxamide] it was no more than 100 nM; in that of `Cc1ccc(OCCCCC(C)(C)O)cc1-c1ccnc(NC(=O)c2nnc(CC3CCCC3)[nH]2)c1` [Example 223, 5-(cyclopentylmethyl)-N-(4-(5-((5-hydroxyl-5-methylhexyl)oxy)-2-methylphenyl)pyridin-2-yl)-4H-1,2,4-triazole-3-carboxamide], no more than 100 nM.

Consider `Cc1ccc(OCCCCCO)cc1-c1ccnc(NC(=O)c2nnc(CC3CCCC3)[nH]2)c1` [Example 224, 5-(cyclopentylmethyl)-N-(4-(5-((5-hydroxypentyl)oxy)-2-methylphenyl)pyridin-2-yl)-4H-1,2,4-triazole-3-carboxamide], for which the IC50 is no more than 100 nM. As for `Cc1ccc(OCCC2CCCCCC2)cc1-c1ccnc(NC(=O)c2nnc(Cc3ccccc3)[nH]2)c1` [Example 225, 5-benzyl-N-(4-(5-(2-cycloheptylethoxy)-2-methylphenyl)pyridin-2-yl)-4H-1,2,4-triazole-3-carboxamide], the figure is no more than 100 nM. As for `Cc1ccc(OCCC2CCOCC2)cc1-c1ccnc(NC(=O)c2nnc(Cc3ccccc3F)[nH]2)c1` [Example 226, 5-(2-fluorobenzyl)-N-(4-(2-methyl-5-(2-(tetrahydro-2H-pyran-4-yl)ethoxy)phenyl)pyridin-2-yl)-4H-1,2,4-triazole-3-carboxamide], the figure is no more than 100 nM; as for `Cc1ccc(OCCC2CCCCO2)cc1-c1ccnc(NC(=O)c2nnc(Cc3ccccc3)[nH]2)c1` (centres unmarked) [Example 227, 5-benzyl-N-(4-(2-methyl-5-(2-(tetrahydro-2H-pyran-2-yl)ethoxy)phenyl)pyridin-2-yl)-4H-1,2,4-triazole-3-carboxamide], no more than 100 nM; as for `Cc1ccc(OCCN2CCCCC2)cc1-c1ccnc(NC(=O)c2nnc(Cc3ccccc3)[nH]2)c1` [Example 228, 5-benzyl-N-(4-(2-methyl-5-(2-(piperidin-1-yl)ethoxy)phenyl)pyridin-2-yl)-4H-1,2,4-triazole-3-carboxamide], 100 to 1000 nM. As for `Cc1ccc(OCCN2CCCCC2)cc1-c1ccnc(NC(=O)c2nnc(Cc3ccccc3F)[nH]2)c1` [Example 229, 5-(2-fluorobenzyl)-N-(4-(2-methyl-5-(2-(piperidin-1-yl)ethoxy)phenyl)pyridin-2-yl)-4H-1,2,4-triazole-3-carboxamide], the figure is 100 to 1000 nM; as for `Cc1ccc(OCCN2CCCCC2)cc1-c1ccnc(NC(=O)c2nnc(Cc3ccc(F)cc3F)[nH]2)c1` [Example 230, 5-(2,4-difluorobenzyl)-N-(4-(2-methyl-5-(2-(piperidin-1-yl)ethoxy)phenyl)pyridin-2-yl)-4H-1,2,4-triazole-3-carboxamide], 100 to 1000 nM; as for `Cc1ccc(OCCN2CCCCC2)cc1-c1ccnc(NC(=O)c2nnc(Cc3cc(F)ccc3F)[nH]2)c1` [Example 231, 5-(2,5-difluorobenzyl)-N-(4-(2-methyl-5-(2-(piperidin-1-yl)ethoxy)phenyl)pyridin-2-yl)-4H-1,2,4-triazole-3-carboxamide], 100 to 1000 nM. For the compound `Cc1ccc(OCCN2CCCCC2)cc1-c1ccnc(NC(=O)c2nnc(Cc3cc(F)cc(F)c3)[nH]2)c1` [Example 232, 5-(3,5-difluorobenzyl)-N-(4-(2-methyl-5-(2-(piperidin-1-yl)ethoxy)phenyl)pyridin-2-yl)-4H-1,2,4-triazole-3-carboxamide], the 50% inhibitory concentration (IC50) is 100 to 1000 nM. As for `Cc1ccc(OCCN2CCCCC2)cc1-c1ccnc(NC(=O)c2nnc(Cc3cccc(Cl)c3F)[nH]2)c1` [Example 233, 5-(2-fluoro-3-chlorobenzyl)-N-(4-(2-methyl-5-(2-(piperidin-1-yl)ethoxy)phenyl)pyridin-2-yl)-4H-1,2,4-triazole-3-carboxamide], the figure is 1000 to 10000 nM. As for `Cc1ccc(OCC2CCN(C)CC2)cc1-c1ccnc(NC(=O)c2nnc(Cc3ccccc3F)[nH]2)c1` [Example 234, 5-(2-fluorobenzyl)-N-(4-(2-methyl-5-((1-methylpiperidin-4-yl)methoxy)phenyl)pyridin-2-yl)-4H-1,2,4-triazole-3-carboxamide], the figure is no more than 100 nM.

The compound `Cc1c(F)cc(OCCCC(C)(C)O)cc1-c1ccnc(NC(=O)c2nnc(Cc3ccccc3)[nH]2)c1` [Example 235, 5-benzyl-N-(4-(3-fluoro-5-((4-hydroxy-4-methylpentyl)oxy)-2-methylphenyl)pyridin-2-yl)-4H-1,2,4-triazole-3-carboxamide] registered a half-inhibitory concentration (IC50) of no more than 100 nM. In the case of `Cc1c(F)cc(OCCCC(C)(C)O)cc1-c1ccnc(NC(=O)c2nnc(Cc3ccccc3F)[nH]2)c1` [Example 236, 5-(2-fluorobenzyl)-N-(4-(3-fluoro-5-((4-hydroxy-4-methylpentyl)oxy)-2-methylphenyl)pyridin-2-yl)-4H-1,2,4-triazole-3-carboxamide] it was no more than 100 nM.

Regarding `Cc1cc(F)c(OCCCC(C)(C)O)cc1-c1ccnc(NC(=O)c2nnc(Cc3ccccc3)[nH]2)c1` [Example 237, 5-benzyl-N-(4-(4-fluoro-5-((4-hydroxy-4-methylpentyl)oxy)-2-methylphenyl)pyridin-2-yl)-4H-1,2,4-triazole-3-carboxamide], the 50% inhibitory concentration (IC50) is no more than 100 nM.

`Cc1ccc(OCCCC(C)(C)O)cc1-c1cc(NC(=O)c2nnc(Cc3ccccc3F)[nH]2)ncc1Cl` [Example 238, N-(5-chloro-4-(5-((4-hydroxy-4-methylpentyl)oxy)-2-methylphenyl)pyridin-2-yl)-5-(2-fluorobenzyl)-4H-1,2,4-triazole-3-carboxamide]: the half-maximal inhibitory concentration (IC50) is no more than 100 nM.

On to `Cc1ccc(OCCCC(C)(C)O)cc1-c1cc(NC(=O)c2nnc(CC3CCCCC3)[nH]2)ncc1Cl` [Example 239, N-(5-chloro-4-(5-((4-hydroxy-4-methylpentyl)oxy)-2-methylphenyl)pyridin-2-yl)-5-(cyclohexylmethyl)-4H-1,2,4-triazole-3-carboxamide], for which the IC50 was no more than 100 nM. As for `Cc1ccc(OCCCC(C)(C)O)cc1-c1cc(NC(=O)c2nnc(Cc3ccccc3F)[nH]2)ncc1C` [Example 240, 5-(2-fluorobenzyl)-N-(4-(5-((4-hydroxy-4-methylpentyl)oxy)-2-methylphenyl)-5-methylpyridin-2-yl)-4H-1,2,4-triazole-3-carboxamide], the figure is 100 to 1000 nM; as for `Cc1ccc(OCCCC(C)(C)O)cc1-c1cc(NC(=O)c2nnc(CC3CCCCC3)[nH]2)ncc1C` [Example 241, 5-(cyclohexylmethyl)-N-(4-(5-((4-hydroxy-4-methylpentyl)oxy)-2-methylphenyl)-5-methylpyridin-2-yl)-4H-1,2,4-triazole-3-carboxamide], 100 to 1000 nM. As for `CCC(O)(CC)CCCOc1ccc(C)c(-c2cc(NC(=O)c3nnc(Cc4ccccc4F)[nH]3)ncc2F)c1` [Example 242, N-(4-(5-((4-ethyl-4-hydroxyhexyl)oxy)-2-methylphenyl)-5-fluoropyridin-2-yl)-5-(2-fluorobenzyl)-4H-1,2,4-triazole-3-carboxamide], the figure is no more than 100 nM; as for `CCC(O)(CC)CCCOc1ccc(C)c(-c2cc(NC(=O)c3nnc(CC4CCCCC4)[nH]3)ncc2F)c1` [Example 243, 5-(cyclohexylmethyl)-N-(4-(5-((4-ethyl-4-hydroxyhexyl)oxy)-2-methylphenyl)-5-fluoropyridin-2-yl)-4H-1,2,4-triazole-3-carboxamide], no more than 100 nM. With `CCC(O)(CC)CCCOc1ccc(C)c(-c2cc(NC(=O)c3nnc(Cc4ccccc4F)[nH]3)ncc2Cl)c1` [Example 244, N-(5-chloro-4-(5-((4-ethyl-4-hydroxyhexyl)oxy)-2-methylphenyl)pyridin-2-yl)-5-(2-fluorobenzyl)-4H-1,2,4-triazole-3-carboxamide], the IC50 was no more than 100 nM.

Take `CCC(O)(CC)CCCOc1ccc(C)c(-c2cc(NC(=O)c3nnc(CC4CCCCC4)[nH]3)ncc2Cl)c1` [Example 245, N-(5-chloro-4-(5-((4-ethyl-4-hydroxyhexyl)oxy)-2-methylphenyl)pyridin-2-yl)-5-(cyclohexylmethyl)-4H-1,2,4-triazole-3-carboxamide]: the IC50 is no more than 100 nM. As for `CCC(O)(CC)CCCOc1ccc(C)c(-c2cc(NC(=O)c3nnc(CC4CCCCC4)[nH]3)ncc2C)c1` [Example 246, 5-(cyclohexylmethyl)-N-(4-(5-((4-ethyl-4-hydroxyhexyl)oxy)-2-methylphenyl)-5-methylpyridin-2-yl)-4H-1,2,4-triazole-3-carboxamide], the figure is 100 to 1000 nM.
